The results in this text go back to ChEMBL document CHEMBL1145080, “Synthesis and cyclooxygenase-2 inhibiting property of 1,5-diarylpyrazoles with substituted benzenesulfonamide moiety as pharmacophore: Preparation of sodium salt for injectable formulation” (J Med Chem, 2003).

Activity calls are given as the source filed them. The calls are words filed in the database; no cut-off is given here.

For series [1], the target named is T1, Prostaglandin G/H synthase 1 (Ovis aries) (UniProt P05979).
T1 sequence (whole entry): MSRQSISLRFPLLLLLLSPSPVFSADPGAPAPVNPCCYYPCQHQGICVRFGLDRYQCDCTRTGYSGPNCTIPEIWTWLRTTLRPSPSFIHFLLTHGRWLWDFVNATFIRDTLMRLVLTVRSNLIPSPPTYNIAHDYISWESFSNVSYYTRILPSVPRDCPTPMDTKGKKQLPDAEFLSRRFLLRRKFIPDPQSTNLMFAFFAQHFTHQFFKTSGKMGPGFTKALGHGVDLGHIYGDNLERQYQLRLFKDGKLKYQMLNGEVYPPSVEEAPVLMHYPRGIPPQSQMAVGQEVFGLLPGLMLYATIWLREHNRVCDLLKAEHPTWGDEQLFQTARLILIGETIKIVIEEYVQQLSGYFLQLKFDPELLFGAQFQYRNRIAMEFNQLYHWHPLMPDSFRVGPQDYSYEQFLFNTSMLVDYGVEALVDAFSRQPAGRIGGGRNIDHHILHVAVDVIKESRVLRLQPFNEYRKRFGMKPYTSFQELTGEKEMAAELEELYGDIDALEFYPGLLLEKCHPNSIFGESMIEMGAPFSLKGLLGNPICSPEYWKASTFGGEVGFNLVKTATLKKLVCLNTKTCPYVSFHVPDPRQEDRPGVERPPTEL
Kind of series: In vitro inhibition of Prostaglandin G/H synthase 1 (from ram seminal vesicles) at a concentration of […].

Series [2] concerns Rattus norvegicus. Kind of series: Evaluated in vivo for antiinflammatory activity at 30 mg/kg oral dose in the carrageenan-induced rat paw edema (male Wistar rat). Format: functional. (The carrageenan paw model is a standard test of acute inflammation.)
In series [3] the test system is Rattus norvegicus. The experiment in a line: Evaluated in vivo for oral dose required to produce antiinflammatory activity in the rat paw edema assay (male Wistar rat). Type of series: functional.
Series [4] addresses T2, Prostaglandin G/H synthase 1 (Ovis aries, UniProt P05979).
T2 sequence (P05979 whole entry): T1 sequence (whole entry)
Description: In vitro inhibition against Prostaglandin G/H synthase 1 from ram seminal vesicles

Series [5] in a line: Pharmacokinetic parameter Tmax was determined in male Wistar rat after 100 mg/kg oral dose of the compound. Format: ADME, organism-based. Details: dose 100 mg/kg, route oral. The conditions noted are these: in vivo.
The nature of series [6]: Partition coefficient (logP). Type of series: physicochemical. Particulars: octanol/water.
Series [7] is described as follows: Pharmacokinetic parameter Cmax was determined in male Wistar rat after 100 mg/kg oral dose of the compound. Type of series: ADME, organism-based. The conditions noted are these: in vivo. Also on record: dose 100 mg/kg, route oral.
Series [8] can be described thus: Pharmacokinetic parameter AUC(area under curve) was determined in male Wistar rat after 100 mg/kg oral dose of the compound. Type of series: ADME, organism-based. Also on record: dose 100 mg/kg, route oral. Particulars: in vivo.
For series [9], the system named is Rattus norvegicus. Kind of series: Evaluated in vivo for antiinflammatory activity at 30 mg/kg oral dose in the carrageenan-induced rat paw edema (male Wistar rat); Not active. Type of series: functional, organism-based. Details: dose 30 mg/kg.

The inhibition is the drop in the measured response relative to a control, in per cent. As usually defined, the inhibition in vivo is the relative decrease from the control value, in per cent. High values mean a strong effect, low ones a weak effect. As to `CC(=O)NS(=O)(=O)c1ccc(-n2nc(C(F)(F)F)cc2-c2ccc(C)cc2)cc1`, in [1], the inhibition is 10%. The molecule further displayed an inhibition in vivo at 30 mg/kg in series [2] of 27%.
With `CCC(=O)NS(=O)(=O)c1ccc(-n2nc(C(F)(F)F)cc2-c2ccc(SC)cc2)c(F)c1`, the inhibition in vivo at 30 mg/kg in series [2] came to 37%.
On to `CCCC(=O)NS(=O)(=O)c1ccc(-n2nc(C(F)(F)F)cc2-c2ccc(F)cc2)c(F)c1`, for which the inhibition in series [1] was 0%. For the same molecule, the inhibition in vivo at 30 mg/kg in series [2] is 22%.
In general, ED50 refers to the midpoint of the dose-response relation. By IC50 is commonly meant the concentration that gives 50% inhibition. A higher IC50 goes with weaker potency in that assay. In series [3], `COc1ccc(-c2cc(C(F)(F)F)nn2-c2ccc(S(N)(=O)=O)c(F)c2)cc1` registered an ED30 of 1 mg/kg and an ED50 of 12.7 mg/kg. The same molecule registered an inhibition in series [1] of 0%. Besides, 30 mg/kg produced 52% inhibition in vivo in series [2]. Further, in series [4], the concentration for half-maximal inhibition (IC50) was > 170 µM.
For `CCCC(=O)NS(=O)(=O)c1ccc(-n2nc(C(F)(F)F)cc2-c2ccc(OC)cc2)c(F)c1`, in series [1], the inhibition amounted to 32%. In addition, the inhibition in vivo at 30 mg/kg in series [2] was found to be 42%.
As for `CCC(=O)[N-]S(=O)(=O)c1ccc(-n2nc(C(F)(F)F)cc2-c2ccc(OC)cc2)c(F)c1.[Na+]`, the 50% effective dose (ED50) in series [3] stood at 6 mg/kg. The molecule also displayed an inhibition in [1] of 18%. This molecule yielded an inhibition in vivo at 30 mg/kg in series [2] of 78%.
As for `COc1ccc2c(c1)c(CC(=O)O)c(C)n2C(=O)c1ccc(Cl)cc1`, the inhibition in series [1] was determined as 100%.
In turn, `COc1ccc(-c2cc(C(F)(F)F)nn2-c2ccc(S(N)(=O)=O)c(C)c2)cc1` yielded an inhibition in series [1] of 75%.
Regarding `CCCC(=O)[N-]S(=O)(=O)c1ccc(-n2nc(C(F)(F)F)cc2-c2ccc(C)cc2)cc1.[Na+]`, it took a dose of 6.69 mg/kg to reach the 50% effect level in series [3] (ED50). For the same molecule, the inhibition in series [1] is 2%. Also, the inhibition in vivo at 30 mg/kg in series [2] was 63%.
Turning to `CCC(=O)[N-]S(=O)(=O)c1ccc(-c2c(-c3ccccc3)noc2C)cc1.[Na+]` [PARECOXIB SODIUM], in series [3], the 50% effect level (ED50) was put at a dose of 5 mg/kg.
The term Tmax denotes the time at which the peak concentration occurs. The logP is the decadic logarithm of the partition coefficient of the neutral form, usually between octanol and water. A word on the Cmax: it is the highest concentration seen after dosing. The term AUC denotes the area under the concentration-time curve, a measure of exposure. A lower AUC goes with less exposure. For the molecule `COc1ccc(-c2cc(C(F)(F)F)nn2-c2ccc(S(N)(=O)=O)cc2F)cc1`, in series [5], the Tmax turned out to be 7.5 h. Also, the logP in series [6] was found to be 3.14. The molecule further showed a Cmax in series [7] of 3300 ng/mL. The same molecule came in with an AUC in [8] of 46400 ng·h/mL. The molecule also returned an inhibition in [1] of 13%. Further, testing at 30 mg/kg in series [2] gave an inhibition in vivo of 26%. In addition, the half-inhibitory concentration (IC50) in [4] was > 30 µM.
On to `CSc1ccc(-c2cc(C(F)(F)F)nn2-c2ccc(S(N)(=O)=O)cc2F)cc1`, for which the Tmax in series [5] came to 1.26 h. Besides, in [6], the logP amounted to 3.81. In series [7], this molecule registered a Cmax of 3210 ng/mL. Further, the exposure (AUC) in series [8] amounted to 6650 ng·h/mL. The inhibition in series [1] amounted to 29%. This molecule also showed an inhibition in vivo at 30 mg/kg in [2] of 33%. Moreover, the concentration for half-maximal inhibition (IC50) in series [4] came out at 24.3 µM.
In the case of `Cc1ccc(-c2cc(C(F)(F)F)nn2-c2ccc(S(N)(=O)=O)cc2)cc1` [CELECOXIB], the Tmax in series [5] is 3.25 h. The molecule further gave a logP in series [6] of 3.01. The molecule also came in with a Cmax in series [7] of 2470 ng/mL. For the same molecule, the AUC in [8] is 23200 ng·h/mL. The molecule further gave an ED50 in series [3] of 7.9 mg/kg. The molecule further yielded an inhibition in vivo at 30 mg/kg in [2] of 49%.
Regarding `CCC(=O)NS(=O)(=O)c1ccc(-n2nc(C(F)(F)F)cc2-c2ccc(F)cc2)c(F)c1`, in series [1], the inhibition stood at 0%. Further, in series [2], the inhibition in vivo at 30 mg/kg amounted to 38%.
Take `CS(=O)(=O)c1ccc(C2=C(c3ccccc3)C(=O)OC2)cc1` [ROFECOXIB]: in [5], the time to peak (Tmax) amounted to 3 h. In series [7], the Cmax came to 5610 ng/mL. For the same molecule, in series [8], the AUC was found to be 57900 ng·h/mL. In series [2], this molecule had an inhibition in vivo at 30 mg/kg of 37%.
Consider `CC(=O)NS(=O)(=O)c1ccc(-n2nc(C(F)(F)F)cc2-c2ccc(F)cc2)c(F)c1`, for which the inhibition in series [1] stood at 26%. The molecule also showed an inhibition in vivo at 30 mg/kg in series [2] of 44%.
Turning to `COc1ccc(-c2cc(C(F)(F)F)nn2-c2ccc(S(=O)(=O)NC(=O)C(C)(C)C)cc2F)cc1`, the inhibition in series [1] amounted to 16%. Further, the inhibition result in [9] was “inactive”.
`CCC(=O)NS(=O)(=O)c1ccc(-n2nc(C(F)(F)F)cc2-c2ccc(C)cc2)cc1` showed an inhibition in series [1] of 0%. In addition, at 30 mg/kg the inhibition in vivo in series [2] was 30%.
In series [1], `CCCC(=O)NS(=O)(=O)c1ccc(-n2nc(C(F)(F)F)cc2-c2ccc(SC)cc2)c(F)c1` displayed an inhibition of 34%. The inhibition in vivo at 30 mg/kg in [2] was found to be 40%.
